Measured values published in patent US10703756B2, “Pyrrolo[2,3-D]pyrimidinyl, pyrrolo[2,3-B]pyrazinyl, pyrrolo[2,3-B]pyridinyl acrylamides and epoxides thereof” (Pfizer Inc., priority 2015, dated 2020).

Legend:
JAK3 enzyme [1] = molecular target: T1, JAK3 enzyme (Homo sapiens, UniProt P52333); experiment: JAK Caliper Enzyme Assay at 4 μM ATP; assay type: biochemical
T1 sequence (P52333 1-1124): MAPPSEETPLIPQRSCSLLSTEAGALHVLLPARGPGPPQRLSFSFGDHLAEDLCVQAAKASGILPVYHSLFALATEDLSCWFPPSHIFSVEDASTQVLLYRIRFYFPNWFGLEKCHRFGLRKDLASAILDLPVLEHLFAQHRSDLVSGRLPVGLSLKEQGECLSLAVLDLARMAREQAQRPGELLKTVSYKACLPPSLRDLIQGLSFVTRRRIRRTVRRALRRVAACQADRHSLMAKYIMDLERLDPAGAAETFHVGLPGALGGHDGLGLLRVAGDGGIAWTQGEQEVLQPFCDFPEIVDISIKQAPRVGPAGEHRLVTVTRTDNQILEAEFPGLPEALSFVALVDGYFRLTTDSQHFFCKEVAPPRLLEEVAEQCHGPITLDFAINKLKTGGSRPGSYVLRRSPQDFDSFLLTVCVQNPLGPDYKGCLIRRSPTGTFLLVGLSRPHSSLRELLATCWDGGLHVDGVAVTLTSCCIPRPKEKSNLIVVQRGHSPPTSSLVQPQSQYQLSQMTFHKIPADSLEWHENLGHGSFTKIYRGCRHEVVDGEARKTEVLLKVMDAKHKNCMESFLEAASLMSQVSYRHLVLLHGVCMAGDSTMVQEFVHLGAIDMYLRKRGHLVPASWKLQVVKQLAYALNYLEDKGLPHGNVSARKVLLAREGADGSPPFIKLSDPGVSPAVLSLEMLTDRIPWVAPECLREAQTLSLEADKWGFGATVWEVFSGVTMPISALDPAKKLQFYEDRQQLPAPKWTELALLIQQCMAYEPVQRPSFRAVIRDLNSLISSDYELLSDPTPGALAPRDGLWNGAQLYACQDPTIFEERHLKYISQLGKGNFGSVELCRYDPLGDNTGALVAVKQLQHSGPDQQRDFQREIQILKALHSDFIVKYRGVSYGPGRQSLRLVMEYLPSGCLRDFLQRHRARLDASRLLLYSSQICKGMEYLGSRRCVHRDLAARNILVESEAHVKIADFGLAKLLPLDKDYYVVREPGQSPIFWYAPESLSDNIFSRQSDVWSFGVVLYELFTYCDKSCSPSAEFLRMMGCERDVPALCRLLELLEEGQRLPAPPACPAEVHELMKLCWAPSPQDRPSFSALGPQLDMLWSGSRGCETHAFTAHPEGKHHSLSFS
Procedure, shortened: (§1)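 Kinase activity is measured by separating phosphorylated from unphosphorylated peptide on a microfluidic chip. Per enzyme batch, protein concentration and incubation time are optimized to give 20%-30% substrate turnover.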

JAK3 enzyme [2] = molecular target: T1, JAK3 enzyme; experiment: JAK Caliper Enzyme Assay at 1 mM ATP; assay type: biochemical
Procedure, shortened: as §1

[3] = tested on: IL-15 induced P-STAT5 in human PBMC; experiment: PBMC IL-15 Induced P-STAT5; assay type: cell-based; settings: human PBMC, IL-15 final 41 ng/mL; read-out: PBMC IL15_pSTAT5_IC50
Description: PBMC IL-15 Induced P-STAT5
Test compounds were serially diluted in DMSO, with further dilution of the compounds in RPMI 1640 medium (Invitrogen #72400) supplemented with 10 mM HEPES, pH 7.4, 1 mM sodium pyruvate, and Penicillin/Streptomycin (by adding 5 μL compound/DMSO in 120 μL Dulbecco's Phosphate-Buffered Saline (D-PBS, 1×), [DMSO]=4%, and mixing the solution by repeated pipetting, 6×). IL-15 was diluted to the concentration at 820 ng/mL in RPMI 1640 medium.
Frozen human PBMC (200-250 million cells/vial) was thawed at 37° C. The cells were transferred to 10 mL warm medium in a 50-mL conical tube, and centrifuged at 1,200 RPM at room temperature for 5 min. The supernatant was aspirated. Cells were suspended in 3 mL warm human plasma and incubated at 37° C. in a tissue culture incubator for 1.5 to 2 h. After adding 47 ml D-PBS (37° C.) to PBMC/FBS suspension, centrifuging at 1,200 RPM at room temperature for 5 min, and aspirating the supernatant, the cells were resuspended in 20 mL warm RPMI medium. Ninety μL of cell suspension were pipetted per well in a 96-well, deep-well, V-bottom plate, and the plate was incubated at 37° C. for 30 min. Five μL of compound were transferred to each well (final 0.2% DMSO), vortex gently and incubate at 37° C. for 15 min; 5 μL 4% DMSO/PBS were added to the control wells. After adding 5 μL 820 ng/mL of human IL-15 (final 41 ng/mL) to each well (5 μL PBS to the control wells), vortexing gently and incubating at 37° C. for 15 min, followed by 0.3 mL 1% paraformaldehyde/PBS (37° C.) to each well, and incubating the plate at room temperature for 15 min, the plates were centrifuged at 1,200 RPM (Beckman GS-6R or Sorvall Legend) at room temperature for 5 min, and the supernatant was aspirated using a 8-channel or 12-channel manifold. After adding 0.8 mL staining buffer per well, the plates were centrifuged at 1,200 RPM (Beckman GS-6R or Sorvall Legend) at room temperature for 5 min, and again the supernatant was aspirated using a 8-channel or 12-channel manifold. The plate was vortexed, and 0.35 mL 90% methanol/10% H2O (−20° C.) was added per well, and the plate incubated on ice for 20 min. After again adding 0.8 mL staining buffer per well, the plates were centrifuged at 1,200 RPM (Beckman GS-6R or Sorvall Legend) at room temperature for 5 min, and again the supernatant was aspirated using a 8-channel or 12-channel manifold, and then 0.8 mL Staining buffer was added per well. After once again adding 0.8 mL staining buffer per well, the plates were centrifuged at 1,200 RPM (Beckman GS-6R or Sorvall Legend) at room temperature for 5 min, and again the supernatant was aspirated using a 8-channel or 12-channel manifold. Then the plate was vortexed, and 250 μL/well of Alexa Fluor® 647 conjugated anti-STAT5 antibody ([…]; […]) was added, and the plate was incubated at 4° C. overnight in the dark. Samples of 250 μL/well were transferred to a 96-well U-bottom plate, and the FACS analysis was performed gating on total lymphocytes. Samples were analyzed using a BD Calibur™ or BD FACSCanto™ flow cytometer equipped with the BD High Throughput Sampler.

IC50 (JAK3 enzyme [1]) [nM] | IC50 (JAK3 enzyme [2]) [nM] | Compound | IC50 [3] [nM]
1.16 | 62 | C=CC(=O)N1CC[C@H](Nc2cnc3[nH]cc(C(=O)NC[C@H](C)CC(F)(F)F)c3n2)[C@H](OC)C1 [Example 294, 2-[((3R,4S)-1-acryloyl-3-methoxypiperidin-4-yl)amino]-N-([2R]-4,4,4-trifluoro-2-methylbutyl)-5H-pyrrolo[2,3-b]pyrazine-7-carboxamide] | 575
3.07 | 365 | C=CC(=O)N1CCN(c2cnc3[nH]cc(C(=O)N[C@@H](C)C(=O)OC)c3n2)CC1(C)C [Example 158, Methyl N-{[2-(4-acryloyl-3,3-dimethylpiperazin-1-yl)-5H-pyrrolo[2,3-b]pyrazin-7-yl]carbonyl}-L-alaninate] | 888
0.898 | 59 | C=CC(=O)N1CC[C@@H](Nc2cnc3[nH]cc(C(=O)NCC4CC(F)(F)C4)c3n2)[C@@H](OC)C1 [Example 309, 2-{[(3S,4R)-1-acryloyl-3-methoxypiperidin-4-yl]amino}-N-[(3,3-difluorocyclobutyl)methyl]-5H-pyrrolo[2,3-b]pyrazine-7-carboxamide] | 526
1.78 | 223 | C=CC(=O)N1CCN(c2cnc3[nH]cc(C(=O)NCC(F)(F)F)c3n2)C[C@@H]1CC(C)C [Example 311, 2-[(3S)-4-acryloyl-3-(2-methylpropyl)piperazin-1-yl]-N-(2,2,2-trifluoroethyl)-5H-pyrrolo[2,3-b]pyrazine-7-carboxamide] | 586
1.39 | 68 | C=CC(=O)N1CCC(Nc2cnc3[nH]cc(C(=O)NCc4ccc(CC)c(C)n4)c3n2)CC1 [Example 184, 2-[(1-acryloylpiperidin-4-yl)amino]-N-[(5-ethyl-6-methylpyridin-2-yl)methyl]-5H-pyrrolo[2,3-b]pyrazine-7-carboxamide] | 1190
1.49 | 168 | C=CC(=O)N1CCN(c2cnc3[nH]cc(C(=O)N[C@@H](CC)COC)c3n2)CC1(C)C [Example 135, 2-(4-acryloyl-3,3-dimethylpiperazin-1-yl)-N-[(2S)-1-methoxybutan-2-yl]-5H-pyrrolo[2,3-b]pyrazine-7-carboxamide] | 759
9.82 | 1080 | C=CC(=O)N1CCN(c2cnc3[nH]cc(C(=O)NCC)c3n2)CC1(C)C [Example 307, 2-(4-acryloyl-3,3-dimethylpiperazin-1-yl)-N-ethyl-5H-pyrrolo[2,3-b]pyrazine-7-carboxamide] | 2130
2.82 | 370 | C=CC(=O)N1CCC(Oc2cnc3[nH]cc(C(=O)NCC4(O)CCC4)c3n2)CC1 [Example 203, 2-[(1-acryloylpiperidin-4-yl)oxy]-N-[(1-hydroxycyclobutyl)methyl]-5H-pyrrolo[2,3-b]pyrazine-7-carboxamide] | 4460
1.29 | 209 | C=CC(=O)N1CCN(c2cnc3[nH]cc(C(=O)NC4CCC4)c3n2)CC1(C)C [Example 289, 2-(4-acryloyl-3,3-dimethylpiperazin-1-yl)-N-cyclobutyl-5H-pyrrolo[2,3-b]pyrazine-7-carboxamide] | 454
0.627 | 105 | C=CC(=O)N1CCC(Oc2cnc3[nH]cc(C(=O)NCCCC#N)c3n2)CC1 [Example 218, 2-[(1-acryloylpiperidin-4-yl)oxy]-N-(3-cyanopropyl)-5H-pyrrolo[2,3-b]pyrazine-7-carboxamide] | 1200
2.89 | 385 | C=CC(=O)N1CCN(c2cnc3[nH]cc(C(=O)NCC4(O)CCC(F)(F)CC4)c3n2)C[C@@H]1CC(C)C [Example 302, 2-[(3S)-4-acryloyl-3-(2-methylpropyl)piperazin-1-yl]-N-[(4,4-difluoro-1-hydroxycyclohexyl)methyl]-5H-pyrrolo[2,3-b]pyrazine-7-carboxamide] | 1190
0.269 | 47 | C=CC(=O)N1CC[C@H](Nc2cnc3[nH]cc(C(=O)NCC4CC(F)(F)C4)c3n2)[C@H](OC)C1 [Example 322, 2-{[(3R,4S)-1-acryloyl-3-methoxypiperidin-4-yl]amino}-N-[(3,3-difluorocyclobutyl)methyl]-5H-pyrrolo[2,3-b]pyrazine-7-carboxamide] | 428
0.262 | 57 | C=CC(=O)N1CCC(C)(Nc2cnc3[nH]cc(C(=O)N[C@H](C)COC)c3n2)CC1 [Example 335, 2-[(1-acryloyl-4-methylpiperidin-4-yl)amino]-N-[(2R)-1-methoxypropan-2-yl]-5H-pyrrolo[2,3-b]pyrazine-7-carboxamide] | 849
0.307 | 44 | C=CC(=O)N1CCC(C)(Nc2cnc3[nH]cc(C(=O)NCCCC(F)(F)F)c3n2)CC1 [Example 333, 2-[(1-acryloyl-4-methylpiperidin-4-yl)amino]-N-(4,4,4-trifluorobutyl)-5H-pyrrolo[2,3-b]pyrazine-7-carboxamide] | 774
1.02 | 73 | C=CC(=O)N1CCC(C)(Nc2cnc3[nH]cc(C(=O)NCC)c3n2)CC1 [Example 281, 2-[(1-acryloyl-4-methylpiperidin-4-yl)amino]-N-ethyl-5H-pyrrolo[2,3-b]pyrazine-7-carboxamide] | 1220
1.67 | 329 | C=CC(=O)N(C)C1CN(c2cnc3[nH]cc(C(=O)NCCOC)c3n2)C1 [Example 84, 2-{3-[acryloyl(methyl)amino]azetidin-1-yl}-N-(2-methoxyethyl)-5H-pyrrolo[2,3-b]pyrazine-7-carboxamide] | 1220
